{
  "source": "patent US7553667B2",
  "about": "“Regulation of gene expression using chromatin remodelling factors” (Her Majesty the Queen in right of Canada as represented by …, priority 2002, dated 2009)",
  "key": {"BnSCL1 gene expression": {"test_system": "BnSCL1 gene expression", "experiment": "Quantitative one-step RT-PCR of BnSCL1 expression in treated seedlings", "type": "in vivo, Brassica napus", "details": "10 mM for 24 h, then 2,4-D 10^-6 to 10^3 μM", "description": "In exogenous applied auxin treatments, four-leaf stage seedlings grown at 20° C. were treated with a foliar spray containing 1 mM 2,4-D and 50 mM sodium phosphate, pH 7.5. The four leaves were collected at 30 min, 60 min and 180 min after the first foliar application of 2,4-D. For the measurement of response of shoots and roots to auxin, sterilized seeds were germinated on plates in a growth chamber with continuous light at 20° C., and 10 dpg seedlings were supplied with varied concentration of 2,4-D. In the auxin transport inhibition experiments, 9 dpg seedlings were incubated in the medium supplemented with 50 μM NPA dissolved in 0.1% DMSO for 24 h before the 2,4-D treatment. For the HDAC inhibitor treatments, 10 mM sodium butyrate was added onto the growth medium and incubated for 24 h followed by exogenous 2,4-D application at varied concentrations.\nTotal RNA extracted as described above was treated with Amplification Grade Deoxyribonuclease I (GibcoL BRL) following the manufacture's instructions. The RNA samples were then directly used for reverse transcription prior to amplification without purification. The RT-PCR was quantitatively performed and completed in a one-step reaction using […] One-Step RT-PCR System (GibcoL BRL) as described by Gao et al. (2002). Gene-specific sense and anti-sense primers used to generate a 960 bp fragment of Brassica napus Actin, as an internal standard, were as described in Gao et al., (2002). Gene-specific primers for the generation of BnSCL1, BnIAA1 and BnIAA12 fragments were as follows: […]"}, "[1]": {"test_system": "auxin-inducible GUS expression", "details": "seedlings, up to 1 mM for 24 h; cited from earlier work"}},
  "data": [
    {"smiles": "CCCC(=O)[O-].[Na+]", "note": "[sodium butyrate]", "values": [
      {"measurement": "BnSCL1 expression profile in shoots and roots in response to auxin after HDAC inhibition", "setting": "BnSCL1 gene expression", "value": "upregulated by auxin at concentration of 1 pM and downregulated by auxin at higher concentrations"},
      {"measurement": "effect on auxin-inducible GUS expression", "setting": "[1]", "value": "no effect"}
    ]}
  ]
}
